Laboratory results reported in article PMC8035250 (ChemMedChem, 2021).
Converted amounts (≈) assume the structure as drawn.

Columns and labels:
[1] = system: MDA-MB-231 breast cancer xenograft; conditions: cited from earlier work
[2] = cited from earlier work
[3] = system: monocytes, MSCs, or mature osteoclasts; conditions: even at a concentration of 10 μM; ref manuscript submitted; cited from earlier work
osteoclastogenesis = test: In vitro osteoclast differentiation assay; type: cell-based, mice; conditions: 10 μM inhibitor, rM-CSF and RANKL, 5–7 d
[4] = previously reported; ref 14b; cited from earlier work
[5] = previously reported; ref 14b; cited from earlier work; remark: listed apart in the source
[6] = previously reported; ref 14b; cited from earlier work; remark: listed apart in the source
[7] = ref 14b, cited from earlier work

Row | SMILES | MDA-MB-231 breast cancer xenograft growth [1] | Osteolytic damage ([1]; in vivo prevention study) | Creatine kinase (measure of muscle toxicity) [2] | Toxicity towards monocytes, MSCs, or mature osteoclasts [3] | Osteoclastogenesis level compared with control (osteoclastogenesis) | Rat microsome half-life [4] | Mouse microsome half-life [5] | Human microsome half-life [6] | Solubility ([7]; converted from […] with MW 499.17 g/mol) | Solubility class in words ([7]; poor defined as <10 μg/mL or <20 μM)
1 | COCCC1(Oc2ccc(Oc3ccc(-c4nc(-c5ccc(F)cc5)co4)cc3)cc2)C(=O)NC(=O)NC1=O [compound 28, 5-(4-{4-[4-(4-fluorophenyl)-1,3-oxazol-2-yl]phenoxy}phenoxy)-5-(2-methoxyethyl)-pyrimidine-2,4,6 (1H,3H,5H)-trione] | inhibited MDA-MB-231 breast cancer xenograft growth | significantly reduced osteolytic damage | did not cause an increase in creatine kinase |  |  |  |  |  |  | 
2 | CNC(=O)[C@@H](NC(=O)c1ccc(-c2ccc(CSc3nc4c(c(=O)[nH]3)CCC4)c(F)c2)o1)C(C)C [RF036] |  |  |  | not due to the compound being toxic | 24% | 9 min | 20 min | 12 min | 7.74 µg/mL (≈ 15.5 µM) | poor solubility
